Reference: patent publication US9365618B2, “Synthetic peptide that induces expression of TNF receptor 2 and use thereof” (TOAGOSEI CO. LTD., priority 2011, dated 2016)
Where no end group is shown, it is not given here.

Tested on: TNFR2
Test: TNFR2 expression-inducing activity against neuroblasts (neuro-2a, fluorescent antibody technique)
Format: cell-based, mouse
Conditions: retinoic acid-differentiated neuro-2a cells, peptide 5 μM, two days incubation, control group set as 1
Protocol: With respect to each sample obtained in Example 1, the TNFR2 expression-inducing activity was tested against neuroblasts. The control group was supplied with no peptides. The test details are described below.
As the cells under test, a cell line (neuro-2a) established from a commercial mouse neuroblastoma was used. The cells were cultured beforehand in a DMEM medium (i.e., a Dulbecco MEM (DMEM medium, a Gibco product) containing 10% fetal bovine serum (FBS, a Gibco product), 2 mM of L-glutamine, 50 unit/mL of penicillin, and 50 μg/mL of streptomycin), and the number of cells per well in a 96-hole(well) plate was adjusted to approximately 5×10^3. The volume of the medium here was 100 μL/well. […]
Subsequently, the stock solution of one of the samples was added to the wells for each sample group to a peptide concentration in each well of 5 μM. […] After samples (synthetic peptides) were added as described above and continuously incubated further for two days, the expression/induction of TNFR1 and TNFR2 was evaluated according to the fluorescent antibody technique in the same manner as Example 2.
With the level of TNFR1 expression (i.e. fluorescence intensity) of the control group set as 1, relative values are shown. […] With the level of TNFR2 expression (i.e. fluorescence intensity) of the control group set as 1, relative values are shown.

In the case of “KKRTLRKNDRKKR (KKRTLRKNDRKKR-NH2; listed as Homo sapiens) [Sample 17, NoLS of human LIMK2]”, the “TNFR2 expression level (relative fluorescence intensity)” value is reported as “at least 1.9”.
